{
  "source": "patent US20180251431A1",
  "about": "(VERTEX PHARMACEUTICALS INCORPORATED, priority 2016, published 2018)",
  "key": {"HEK293 cells": {"test_system": "HEK293 cells", "assay": "HEK293 VLCFA-LPC IC50 determination (13C-labeled C26:0 LPC by UHPLC/MS)", "format": "cell-based, human", "conditions": "Homo sapiens", "in_short": "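Suspension HEK293 cells (final 0.5 million/mL after mixing with equal volume) incubated 48 hours with compound plus 13C-acetate (1.0 mg/mL in added media), shaking at 37° C. Lipids extracted with hexane/isopropanol or methanol, C13:0 LPC standard. UHPLC/MS of 13C-labeled C26:0 LPC (638.500/104.100 m/z); IC50 by four-parameter fit.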"}, "[1]": {"assay": "Body weight and adverse effects during treatment in the thermal sensitivity studies", "format": "in vivo, mouse", "conditions": "ABCD1 KO mice, prophylactic (5 or 20 mg/kg) and therapeutic (32 or 64 mg/kg) PO QD experiments", "procedure": "For the prophylactic study, mice were tested beginning at 10 months of age (before the loss of pain sensitivity) using doses of either 5 or 20 mg/kg. For the therapeutic study, mice were tested beginning at 18 months of age, after there was already a significant loss of pain sensitivity, using doses of either 32 or 64 mg/kg. […] The Plantar test (using a Hargreaves apparatus) was used and measured the latency to respond to a thermal stimulus using the following protocol. An individual mouse was placed into an individual compartment with a glass floor for about 10-15 minutes until they were settled. Each individual mouse was given three trials with an infrared source on each hind paw (alternated hind paws each time, and waited 5 minutes between each trial). The infrared source was placed under the glass floor and was positioned by the operator directly beneath the hind paw. A trial was commenced by depressing a key/button which turned on the infrared source and started a digital timer. When a response was observed (paw withdrawal), the key/button was released and the latency to respond was recorded (in seconds)."}},
  "note": "Like-named read-outs stand apart in the source and are kept apart here.",
  "data": [
    {"compound": "O=C(Nc1ccn(-c2ccnc(F)c2)n1)C1(c2ccccc2F)CC1", "note": "[Compound 87, 1-(2-fluorophenyl)-N-[1-(2-fluoro-4-pyridyl)pyrazol-3-yl]cyclopropanecarboxamide]", "values": [
      {"measurement": "IC50", "setting": "HEK293 cells; HEK293, 48 h, HEK293, half maximal reduction in C26:0 LPC, about 48 hours, read-out: IC50", "result": 8, "unit": "nM"},
      {"measurement": "IC50", "setting": "HEK293 cells; HEK293, HEK293 cells, average of one or more replicates, read-out: Average HEK293 IC50", "result": 13, "unit": "nM"},
      {"measurement": "body weight and adverse effects during treatment", "setting": "[1]", "result": "did not have a significant drop in body weight or any other noticeable adverse effect"}
    ]}
  ]
}
